Where a chain is given by its changes, count along the chain named.
What was measured:
Assay in all cases: SAT activity, acetyl-CoA decrease at […] nm
AtSAT-c [1] = target: T1, AtSAT-c (Arabidopsis thaliana, UniProt Q42538, G270A); assay type: biochemical
T1 sequence (Q42538 1-312 G270A): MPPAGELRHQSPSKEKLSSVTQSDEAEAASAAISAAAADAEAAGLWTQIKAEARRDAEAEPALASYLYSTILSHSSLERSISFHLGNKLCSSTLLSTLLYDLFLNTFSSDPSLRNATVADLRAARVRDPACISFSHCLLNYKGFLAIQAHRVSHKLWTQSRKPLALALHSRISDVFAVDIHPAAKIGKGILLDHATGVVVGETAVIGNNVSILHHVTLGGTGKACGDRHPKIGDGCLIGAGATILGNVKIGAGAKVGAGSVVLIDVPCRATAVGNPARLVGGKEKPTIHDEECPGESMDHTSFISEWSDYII

AtSAT-c [2] = target: T2, AtSAT-c (Arabidopsis thaliana, UniProt Q42538, C268P/G270A); assay type: biochemical
T2 sequence (Q42538 1-312 C268P/G270A): T1 sequence (Q42538 1-312 G270A) with C268P

Tg-N/At-C = assay type: biochemical, Noccaea goesingensis; Arabidopsis thaliana; conditions: 1 mM L-serine, 0.1 mM acetyl-CoA, 50 mM Tris-HCl pH 8.0, room temperature; feedback inhibition
AtSAT-c [3] = target: T3, AtSAT-c (Arabidopsis thaliana, UniProt Q42538, C268P); assay type: biochemical
T3 sequence (Q42538 1-312 C268P): T1 sequence (Q42538 1-312 G270A) with C268P, A270G

TgSAT-c = target: T4, TgSAT-c (Noccaea goesingensis, UniProt Q6IWF8); assay type: biochemical
T4 sequence (Q6IWF8 1-311): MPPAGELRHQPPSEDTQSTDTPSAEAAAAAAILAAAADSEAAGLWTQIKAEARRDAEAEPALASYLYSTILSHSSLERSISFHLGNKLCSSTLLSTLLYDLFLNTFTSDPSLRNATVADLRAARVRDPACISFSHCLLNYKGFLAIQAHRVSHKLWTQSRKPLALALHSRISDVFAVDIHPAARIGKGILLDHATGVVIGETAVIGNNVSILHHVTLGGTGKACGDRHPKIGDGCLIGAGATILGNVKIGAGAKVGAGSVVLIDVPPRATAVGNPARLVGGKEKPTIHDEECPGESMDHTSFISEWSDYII

At-N/Tg-C = assay type: biochemical, Arabidopsis thaliana; Noccaea goesingensis; conditions: 1 mM L-serine, 0.1 mM acetyl-CoA, 50 mM Tris-HCl pH 8.0, room temperature; feedback inhibition
TgSAT-p = target: T5, TgSAT-p (Noccaea goesingensis, UniProt Q6IWF9); assay type: biochemical
T5 sequence (Q6IWF9 1-319): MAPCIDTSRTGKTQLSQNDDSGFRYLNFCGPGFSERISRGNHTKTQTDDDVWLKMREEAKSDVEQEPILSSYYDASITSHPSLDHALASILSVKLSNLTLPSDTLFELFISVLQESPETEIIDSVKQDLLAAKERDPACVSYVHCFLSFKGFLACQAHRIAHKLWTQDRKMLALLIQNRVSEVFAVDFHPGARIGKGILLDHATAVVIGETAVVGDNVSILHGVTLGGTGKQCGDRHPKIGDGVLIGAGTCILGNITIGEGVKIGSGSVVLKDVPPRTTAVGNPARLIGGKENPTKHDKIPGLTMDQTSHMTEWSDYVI

TgSAT-m = target: T6, TgSAT-m (Noccaea goesingensis, UniProt Q6IWG0); assay type: biochemical
T6 sequence (Q6IWG0 1-395): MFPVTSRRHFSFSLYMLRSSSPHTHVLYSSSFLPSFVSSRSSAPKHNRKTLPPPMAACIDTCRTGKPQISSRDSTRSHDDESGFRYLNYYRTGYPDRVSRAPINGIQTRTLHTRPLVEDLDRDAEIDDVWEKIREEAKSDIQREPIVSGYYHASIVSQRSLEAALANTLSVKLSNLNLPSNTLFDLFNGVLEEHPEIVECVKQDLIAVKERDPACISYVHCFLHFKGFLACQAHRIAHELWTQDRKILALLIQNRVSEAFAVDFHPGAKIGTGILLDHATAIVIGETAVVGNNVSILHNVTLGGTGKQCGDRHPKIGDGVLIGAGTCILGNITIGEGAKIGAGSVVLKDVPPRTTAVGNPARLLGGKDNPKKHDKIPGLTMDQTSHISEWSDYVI

AtSAT-c [4] = target: T7, AtSAT-c (Arabidopsis thaliana, UniProt Q42538); assay type: biochemical
T7 sequence (Q42538 1-312): T1 sequence (Q42538 1-312 G270A) with A270G

Structure (SMILES): N[C@@H](CS)C(=O)O [L-Cys]
- IC50 (AtSAT-c [1]): 17.7 µM
- IC50 (AtSAT-c [2]): > 100 µM
- IC50 (Tg-N/At-C): 3.4 µM
- IC50 (AtSAT-c [3]): 83.9 µM
- IC50 (TgSAT-c): > 100 µM
- IC50 (At-N/Tg-C): > 100 µM
- IC50 (TgSAT-p): > 100 µM
- IC50 (TgSAT-m): > 100 µM
- IC50 (AtSAT-c [4]): 3.3 µM

Source: article PMC3220491 (The Journal of Biological Chemistry, 2011)
